According to ChEMBL document CHEMBL5500332, “Structure-based approaches for the design of 6-aryl-1-(3,4,5-trimethoxyphenyl)-1H-benzo[d][1,2,3]triazoles as tubulin polymerization inhibitors” (Eur J Med Chem, 2024):
Activity calls are given as the source filed them. The calls are words filed in the database; no cut-off is given here.

Experiments:
MCF7 [1] = experiment: Antiproliferative activity against human MCF7 cells measured after 72 hrs by MTT assay; type: functional, cell-based; conditions: MCF7, 72 h
A549 = experiment: Antiproliferative activity against human A549 cells measured after 72 hrs by MTT assay; type: functional, cell-based; conditions: A549, 72 h
SGC-7901 = experiment: Antiproliferative activity against human SGC-7901 cells measured after 72 hrs by MTT assay; type: functional, cell-based; conditions: SGC-7901, 72 h
4T1 = experiment: Antitumor activity against mouse 4T1 cells xenografted in BALB/c mouse model assessed as tumor growth inhibition rate at 10 mg/kg, iv measured every two days for 2 weeks relative to control; type: functional; conditions: 4T1, 336 h, read-out: TGI
Tubulin (Homo sapiens) = Tubulin (Homo sapiens) (UniProt P68371+Q9H4B7+P0DPH7+P68366+Q13509+Q71U36+P04350+Q3ZCM7+P07437+P68363+Q9BQE3+Q6PEY2+Q13885+Q9BVA1+Q9BUF5); experiment: Inhibition of tubulin polymerization (unknown origin) at 3 uM measured every 60 secs for 90 mins by microplate reader based analysis; type: protein-complex assay
MCF7 [2] = experiment: Induction of cell cycle arrest in human MCF7 cells assessed as accumulation of cells at S phase at 30 nM incubated for 24 hrs by PI staining based flow cytometry analysis (reference value: 14.58%); type: functional
MCF7 [3] = experiment: Induction of cell cycle arrest in human MCF7 cells assessed as accumulation of cells at G2/M phase at 30 nM incubated for 24 hrs by PI staining based flow cytometry analysis (reference value: 14.36%); type: functional
MCF7 [4] = experiment: Induction of cell cycle arrest in human MCF7 cells assessed as accumulation of cells at G0/G1 phase at 30 nM incubated for 24 hrs by PI staining based flow cytometry analysis (reference value: 69.67%); type: functional
MCF7 [5] = experiment: Induction of cell cycle arrest in human MCF7 cells assessed as accumulation of cells at S phase at 15 nM incubated for 24 hrs by PI staining based flow cytometry analysis (reference value: 14.58 %); type: functional
MCF7 [6] = experiment: Induction of cell cycle arrest in human MCF7 cells assessed as accumulation of cells at G0/G1 phase at 15 nM incubated for 24 hrs by PI staining based flow cytometry analysis (reference value: 69.67%); type: functional
MCF7 [7] = experiment: Induction of cell cycle arrest in human MCF7 cells assessed as accumulation of cells at G2/M phase at 15 nM incubated for 24 hrs by PI staining based flow cytometry analysis (reference value: 14.36%); type: functional

Compound | IC50 (MCF7 [1]) [µM] | IC50 (A549) [µM] | IC50 (SGC-7901) [µM] | also measured
COc1cc(-n2nnc3ccc(-c4ccc([N+](=O)[O-])cc4)cc32)cc(OC)c1OC | 3.1 | > 10 | 3.17 | –
CC(=O)O[C@H]1C(=O)[C@@]2(C)[C@H]([C@H](OC(=O)c3ccccc3)[C@]3(O)C[C@H](OC(=O)[C@H](O)[C@@H](NC(=O)c4ccccc4)c4ccccc4)C(C)=C1C3(C)C)[C@]1(OC(C)=O)CO[C@@H]1C[C@@H]2O [PACLITAXEL] | – | – | – | inhibition in vivo at 10 mg/kg (4T1): 72.1%; inhibition (Tubulin (Homo sapiens)): inactive
COc1cc2c(c(OC)c1OC)-c1ccc(OC)c(=O)cc1[C@@H](NC(C)=O)CC2 [COLCHICINE] | 0.03 | – | 0.012 | Activity (MCF7 [2]): 28.2%; Activity (MCF7 [3]): 63.44%; Activity (MCF7 [4]): 8.87%; Activity (MCF7 [5]): 24.77%; Activity (MCF7 [6]): 37.19%; Activity (MCF7 [7]): 35.05%
COc1cc(-n2nnc3ccc(-c4cccc(C)c4)cc32)cc(OC)c1OC | 0.212 | 2.45 | 0.412 | –
CCOc1ccc(-c2ccc3nnn(-c4cc(OC)c(OC)c(OC)c4)c3c2)cc1 | 8.25 | 2.69 | > 10 | –
COc1ccc(-c2ccc3nnn(-c4cc(OC)c(OC)c(OC)c4)c3c2)cc1 | 0.212 | 1.4 | 0.447 | –
COc1cc(-n2nnc3ccc(-c4ccc(C)cc4)cc32)cc(OC)c1OC | 0.33 | 1.4 | 0.529 | –
COc1cc(-n2nnc3ccc(-c4ccc(C)cc4F)cc32)cc(OC)c1OC | 0.092 | 1.07 | 0.893 | –
COc1cc(-n2nnc3ccc(-c4ccc(F)cc4)cc32)cc(OC)c1OC | 1.25 | 2.15 | 0.789 | –
COc1cc(OC)cc(-n2nnc3ccc(-c4ccc(OC)c(O)c4)cc32)c1 | 0.726 | 6.46 | 1.07 | –
COc1cccc(-c2ccc3nnn(-c4cc(OC)c(OC)c(OC)c4)c3c2)c1 | 3.28 | 6.85 | 8.12 | –
COc1cc(-n2nnc3ccc(-c4ccccc4)cc32)cc(OC)c1OC | 0.242 | 1.99 | 1.82 | –
COc1ccccc1-c1ccc2nnn(-c3cc(OC)c(OC)c(OC)c3)c2c1 | 3.27 | 6.5 | 1.97 | –
COc1cc(-n2nnc3ccc(-c4ccc(C(C)=O)cc4)cc32)cc(OC)c1OC | 3.09 | 2.57 | 4.85 | –
COc1cc(-c2ccc3nnn(-c4cc(OC)c(OC)c(OC)c4)c3c2)cc(OC)c1OC | > 10 | 4.79 | > 10 | –

Continued, in another order:

IC50 (MCF7 [1]) [µM] | IC50 (A549) [µM] | IC50 (SGC-7901) [µM] | Compound | also measured
3.39 | 5.07 | 6.61 | COc1cc(-n2nnc3ccc(-c4ccc(C(F)(F)F)cc4)cc32)cc(OC)c1OC | –
7.49 | 7.25 | 2.98 | COc1cc(-n2nnc3ccc(-c4cccc(F)c4)cc32)cc(OC)c1OC | –
8.36 | 9.56 | 6.34 | COc1cc(-n2nnc3ccc(-c4ccccc4Cl)cc32)cc(OC)c1OC | –
2.28 | 4.5 | 1.48 | COc1cc(-n2nnc3ccc(-c4cccc(Cl)c4)cc32)cc(OC)c1OC | –
0.042 | 0.21 | 0.045 | COc1ccc(-c2ccc3ncn(-c4cc(OC)c(OC)c(OC)c4)c3c2)cc1O | –
6.57 | > 10 | 2.84 | COc1cc(-n2nnc3ccc(-c4ccc(Cl)cc4Cl)cc32)cc(OC)c1OC | –
0.346 | 3.93 | 0.188 | COc1ccc(-c2ccc3nnn(-c4ccc(OC)c(OC)c4)c3c2)cc1O | –
0.257 | 3.53 | 1.2 | COc1cc(-n2nnc3ccc(-c4cccc(O)c4)cc32)cc(OC)c1OC | –
1.3 | 5.11 | 4.24 | COc1cc(-n2nnc3ccc(-c4ccc(O)cc4)cc32)cc(OC)c1OC | –
3.8 | 1.94 | 6.67 | COc1cc(-n2nnc3ccc(-c4cccc([N+](=O)[O-])c4)cc32)cc(OC)c1OC | –
1.52 | 3.75 | 1.46 | COc1cc(-n2nnc3ccc(-c4ccc(Cl)cc4)cc32)cc(OC)c1OC | –
